# Laboratory results published in patent US20250129055A1, “GLUCOSIDE DERIVATIVE, AND PREPARATION METHOD THEREFOR AND APPLICATION THEREOF” (BEIJING INCREASE INNOVATIVE DRUG CO., LTD., priority 2020, published 2025).
# Columns and labels:
# [1] = system: Alloxan diabetic mice; test: Efficacy in Alloxan diabetes model mice; type: in vivo
# Method: Test Example 3 Research on efficacy of the compounds of the present invention in in vivo anti-Alloxan diabetes model mice
# Alloxan diabetes mice were used. Normal ICR mice (male, 22-24 g) were randomly divided into groups including normal group, model group (con), positive control group and test compound groups with four different doses (n=11), and the mice without injection of Alloxan were in a normal control group (n=10).
# (§1) Mice were administered with drugs by gavage.
# Single administration: Mice were fasted for 3 h, and then the fasting blood (0 min) was collected. Then the mice in each group were administered with drugs by gavage. After 1 h, they were administered with a glucose ([…]) solution. Blood was collected at 30 min, 60 min, 120 min, and 180 min after the glucose administration. The blood glucose level was measured using glucose oxidase-peroxidase method, and the area under the blood glucose curve was calculated.
# On the 6th day of continuous administration, under the condition of no fasting, blood samples were collected from mice before administration (0 h), 1 h, 2 h, 4 h, 8 h and 24 h after administration to measure blood glucose.
# On the 9th day of continuous administration, the mice were fasted for 1 h and then administered with drugs by gavage. An oral glucose tolerance test (OGTT) was performed 1 h after administration.
# On the 16th day of continuous administration, under the condition of no fasting, urine samples were collected from mice 1 h after administration to measure the concentration of urine glucose.
# On the 22nd day of continuous administration, the mice were fasted for 1 h and then administered with drugs by gavage, and blood samples were collected to measure the fasting blood glucose 1 h after administration.
# On the 28th day of continuous administration, under the condition of no fasting, blood samples were collected from mice 1 h after administration to measure the random blood glucose.
# On the 32nd day of continuous administration, under the condition of no fasting, blood samples were collected from mice to measure glycosylated hemoglobin (HbA1c).
# The data were expressed as mean±SEM (n=10-11). The comparison between multiple groups was performed by one-way analysis of variance, and the comparison between two groups was performed by Dunnett's t test. Statistical graphing was performed using Graphpad Prism software.
# [2] = system: spontaneous type 2 diabetes mellitus db/db mice; test: Pharmacodynamic effect on spontaneous type 2 diabetes mellitus db/db mice; type: in vivo; settings: for AUC of blood glucose: 0-24 h; for Concentration of blood glucose 0 h / Concentration of blood glucose 1 h / Concentration of blood glucose 2 h / Concentration of blood glucose 4 h / Concentration of blood glucose 6 h / Concentration of blood glucose 8 h / Concentration of blood glucose 24 h: fasting; for Concentration of blood glucose 0 h: 0 h before administration; for HbA1c: 28th day; for Random blood glucose, the 22nd day (title: 28th day): column head 22nd day
# Method: Test example 4 Pharmacodynamic effect of the compounds of the present invention on spontaneous type 2 diabetes mellitus db/db mice
# Spontaneous type 2 diabetes mellitus db/db mice and the normal control db/m mice (male, 5-6 weeks old) were used. The db/db mice were randomly divide into […] based on random blood glucose, fasting blood glucose, percentage of blood glucose reduction at 40 min, blood triglycerides, total blood cholesterol, and body weight, which were model group (con), positive control group and three groups of test compound with different doses (n=10).
# as §1
# The mice were fasted for 2 h, and then the 0 h (fasting) blood samples were collected. Then the mice in each group were administered with drugs by gavage, and blood samples were collected at 1 h, 2 h, 4 h, 6 h, 8 h and 24 h after administration. The blood glucose level was measured using glucose oxidase-peroxidase method, and the area under the blood glucose curve was calculated. Moreover, urine samples were collected 2 h and 4 h after administration to determine the concentration of urine glucose.
# On the 15th day of continuous administration, before the mice were fasted, blood samples were collected to measure the random blood glucose. Then the mice were fasted and administered with the compounds, and after 2 h, blood samples were collected to measure the fasting blood glucose. […]
# The data were expressed as mean±SEM (n=10). The comparison between multiple groups was performed by one-way analysis of variance, and the comparison between two groups was performed by Dunnett's t test. Statistical graphing was performed using Graphpad Prism software.
# [3] = 0.5 mg/kg single administration
# [4] = 1.0 mg/kg single administration
# [5] = 2.0 mg/kg single administration
# [6] = 22nd day of continuous administration, 0.5, 1.0 and 2.0 mg/kg
structure (smiles),measurement,setting,value
"CS[C@H]1O[C@@H](c2ccc(C)c(Cc3ccc4c(c3)OCCO4)c2)[C@H](O)[C@@H](O)[C@@H]1O (stereo in doubt) [Compound 2, 2-[3-(2,3-dihydro-1,4-benzodioxin-6-ylmethyl)-4-methylphenyl]-6-(methylthio)oxane-3,4,5-triol]",AUC of blood glucose,"[1]; 2.0 mg/kg, non-fasting, 6th day, 0-24 h",11326 ± 225.5 mg·h/dL
same,Concentration of blood glucose 1 h,"[1]; 2.0 mg/kg, non-fasting, 6th day, 1 h after administration",414.1 ± 18.3 mg/dL
same,Concentration of blood glucose 2 h,"[1]; 2.0 mg/kg, non-fasting, 6th day, 2 h after administration",460.2 ± 15.0 mg/dL
same,Concentration of blood glucose 4 h,"[1]; 2.0 mg/kg, non-fasting, 6th day, 4 h after administration",390.6 ± 28.2 mg/dL
same,Concentration of blood glucose 8 h,"[1]; 2.0 mg/kg, non-fasting, 6th day, 8 h after administration",434.0 ± 18.8 mg/dL
same,Concentration of blood glucose 24 h,"[1]; 2.0 mg/kg, non-fasting, 6th day, 24 h after administration",559.3 ± 10.4 mg/dL
same,Concentration of blood glucose 0 h,"[1]; 2.0 mg/kg, non-fasting, 6th day, before administration",473.0 ± 16.2 mg/dL
same,Concentration of blood glucose (random),"[1]; 2.0 mg/kg, random blood glucose on the 28th day",391.2 ± 26.0 mg/dL
same,Duration of hypoglycemic effect,"[1]; 6th day, dapagliflozin 2.0 mg/kg, Compound 2 0.25-2.0 mg/kg",still had a good hypoglycemic effect after 8-24 h
same,Concentration of urine glucose,"[1]; continuous administration for 16 days, 0.25-2.0 mg/kg, non-fasting, 1 h after administration",significantly increase
same,"Effect on body weight, food intake and water intake","[1]; continuous administration for 22 days, 0.25-2.0 mg/kg",no obvious effect
same,Blood glucose level and AUC after glucose administration,"[1]; single administration, 0.25, 0.5, 1.0 and 2.0 mg/kg",significantly lower
same,AUC of blood glucose,[2]; [3],7046 ± 253.0 mg·h/dL
same,Concentration of blood glucose 0 h,[2]; [3],486.3 ± 32.9 mg/dL
same,Concentration of blood glucose 1 h,[2]; [3],386.8 ± 22.3 mg/dL
same,Concentration of blood glucose 2 h,[2]; [3],362.7 ± 27.2 mg/dL
same,Concentration of blood glucose 4 h,[2]; [3],252.3 ± 9.7 mg/dL
same,Concentration of blood glucose 6 h,[2]; [3],169.3 ± 4.4 mg/dL
same,Concentration of blood glucose 8 h,[2]; [3],134.2 ± 4.6 mg/dL
same,Concentration of blood glucose 24 h,[2]; [3],477.7 ± 25.9 mg/dL
same,"Fasting blood glucose, the 15th day",[2]; 0.5 mg/kg,185.0 ± 13.6 mg/dL
same,"Random blood glucose, the 15th day",[2]; 0.5 mg/kg,307.9 ± 18.4 mg/dL
same,"Fasting blood glucose, the 22nd day",[2]; 0.5 mg/kg,193.8 ± 14.7 mg/dL
same,HbA1c,[2]; 0.5 mg/kg,4.7 ± 0.3 %
same,"Random blood glucose, the 22nd day (title: 28th day)",[2]; 0.5 mg/kg,272.4 ± 16.5 mg/dL
same,AUC of blood glucose,[2]; [4],6952 ± 295.8 mg·h/dL
same,Concentration of blood glucose 0 h,[2]; [4],552.2 ± 24.2 mg/dL
same,Concentration of blood glucose 1 h,[2]; [4],412.5 ± 13.1 mg/dL
same,Concentration of blood glucose 2 h,[2]; [4],362.3 ± 23.7 mg/dL
same,Concentration of blood glucose 4 h,[2]; [4],256.0 ± 10.1 mg/dL
same,Concentration of blood glucose 6 h,[2]; [4],161.8 ± 6.9 mg/dL
same,Concentration of blood glucose 8 h,[2]; [4],124.3 ± 5.8 mg/dL
same,Concentration of blood glucose 24 h,[2]; [4],470.7 ± 25.6 mg/dL
same,"Fasting blood glucose, the 15th day",[2]; 1.0 mg/kg,197.9 ± 11.2 mg/dL
same,"Random blood glucose, the 15th day",[2]; 1.0 mg/kg,322.7 ± 11.1 mg/dL
same,"Fasting blood glucose, the 22nd day",[2]; 1.0 mg/kg,204.1 ± 12.2 mg/dL
same,HbA1c,[2]; 1.0 mg/kg,4.8 ± 0.2 %
same,"Random blood glucose, the 22nd day (title: 28th day)",[2]; 1.0 mg/kg,258.4 ± 12.8 mg/dL
same,AUC of blood glucose,[2]; [5],6507 ± 269.6 mg·h/dL
same,Concentration of blood glucose 0 h,[2]; [5],519.3 ± 30.7 mg/dL
same,Concentration of blood glucose 1 h,[2]; [5],377.0 ± 9.0 mg/dL
same,Concentration of blood glucose 2 h,[2]; [5],309.7 ± 13.1 mg/dL
same,Concentration of blood glucose 4 h,[2]; [5],259.0 ± 14.9 mg/dL
same,Concentration of blood glucose 6 h,[2]; [5],153.3 ± 10.7 mg/dL
same,Concentration of blood glucose 8 h,[2]; [5],129.5 ± 12.8 mg/dL
same,Concentration of blood glucose 24 h,[2]; [5],427.0 ± 20.2 mg/dL
same,"Fasting blood glucose, the 15th day",[2]; 2.0 mg/kg,162.7 ± 12.1 mg/dL
same,"Random blood glucose, the 15th day",[2]; 2.0 mg/kg,240.4 ± 16.4 mg/dL
same,"Fasting blood glucose, the 22nd day",[2]; 2.0 mg/kg,159.5 ± 8.5 mg/dL
same,HbA1c,[2]; 2.0 mg/kg,4.0 ± 0.2 %
same,"Random blood glucose, the 22nd day (title: 28th day)",[2]; 2.0 mg/kg,194.7 ± 14.0 mg/dL
same,Blood triglycerides (TG) level,[2]; [6],significantly lower
same,Concentration of blood cholesterol,[2]; [6],no effect
same,Concentration of urine glucose,"[2]; 2 h after single administration, 0.5, 1.0 and 2.0 mg/kg",increased
same,Concentration of urine glucose,"[2]; 4 h after single administration, 0.5, 1.0 and 2.0 mg/kg",not increased
same,"Effect on body weight, food intake and water intake","[2]; continuous administration, 0.5, 1.0 and 2.0 mg/kg",no significant effect
same,Duration of blood glucose lowering,"[2]; single administration, 0.5, 1.0 and 2.0 mg/kg",up to 24 h
